# Data from US10206937B2, “Boronic acid derivatives and therapeutic uses thereof” (Qpex Biopharma, Inc., priority 2014, dated 2019).
# System: strains of Enterobacteriaceae producing various carbapenemases (class A, D and B; 169 strains)
# Experiment: Meropenem or tebipenem potentiation by Compounds 97 or 62 (MIC)
# Type: cell-based
# Procedure: The largest panel of clinical isolates expressing class A, D and B carbapenemases alone or in combination with other beta-lactamases (169 strains) was used to evaluate carbapenem potentiation activity of Compounds 97 and 62. MIC for meropenem and tebipenem of these strains were determined either alone or in the presence of Compounds 97 or 62, respectively, at a fixed concentration of 8 μg/ml in the growth media.
smiles,measurement,setting,value
C[C@@H](O)[C@H]1C(=O)N2C(C(=O)O)=C(S[C@@H]3CN[C@H](C(=O)N(C)C)C3)[C@H](C)[C@H]12 [M],Meropenem MIC alone (M),"CF1022 Citrobacter freundii SHV-12(2be), TEM-OSBL(2b), IMP-8",Y (MIC of 1 μg/mL to 10 μg/mL)
same,Meropenem MIC alone (M),"CF1023 Citrobacter freundii SHV-12(2be), TEM-OSBL(2b), CTX-M-3, CMY-34, NDM-1",Z (MIC of greater than 10 μg/mL)
same,Meropenem MIC alone (M),"EC1061 Escherichia coli NDM-1, CMY-6",Z (MIC of greater than 10 μg/mL)
same,Meropenem MIC alone (M),"EC1069 Escherichia coli CTX-M-27, NDM-1",Z (MIC of greater than 10 μg/mL)
same,Meropenem MIC alone (M),"EC1070 Escherichia coli TEM-OSBL(2b), CMY-42, NDM-5",Z (MIC of greater than 10 μg/mL)
same,Meropenem MIC alone (M),"EC1072 Escherichia coli CTX-M-3, NDM-1",Z (MIC of greater than 10 μg/mL)
same,Meropenem MIC alone (M),ECL1045 Enterobacter cloacae VIM-1,Z (MIC of greater than 10 μg/mL)
same,Meropenem MIC alone (M),"ECL1055 Enterobacter cloacae KPC-3, TEM",Y (MIC of 1 μg/mL to 10 μg/mL)
same,Meropenem MIC alone (M),"ECL1057 Enterobacter cloacae NDM-1, TEM-1, CTX-M-15",Z (MIC of greater than 10 μg/mL)
same,Meropenem MIC alone (M),"ECL1084 Enterobacter cloacae CTX-M-15, ACT-16, NDM-1",Z (MIC of greater than 10 μg/mL)
same,Meropenem MIC alone (M),"ECL1085 Enterobacter cloacae SHV-31(2be), TEM-1(2b), CTX-M-15, NDM-1",Z (MIC of greater than 10 μg/mL)
same,Meropenem MIC alone (M),ECL1087 Enterobacter cloacae VIM-1,Z (MIC of greater than 10 μg/mL)
same,Meropenem MIC alone (M),"ECL1090 Enterobacter cloacae TEM-1(2b), CTX-M-22, ACT-type, IMP-8",Y (MIC of 1 μg/mL to 10 μg/mL)
same,Meropenem MIC alone (M),"ECL1092 Enterobacter cloacae TEM-OSBL(2b), ACT-32, VIM-1",Y (MIC of 1 μg/mL to 10 μg/mL)
same,Meropenem MIC alone (M),"ECL1093 Enterobacter cloacae TEM-OSBL(2b), ACT-32, VIM-1",Y (MIC of 1 μg/mL to 10 μg/mL)
same,Meropenem MIC alone (M),ECL1094 Enterobacter cloacae VIM-1,Z (MIC of greater than 10 μg/mL)
same,Meropenem MIC alone (M),"ECL1095 Enterobacter cloacae SHV-12(2be), TEM-OSBL(2b), CMY-4, ACT-16, VIM-4, OXA-48(c)",Z (MIC of greater than 10 μg/mL)
same,Meropenem MIC alone (M),"ECL1096 Enterobacter cloacae CMY-4, VIM-4, OXA-48(c)",Z (MIC of greater than 10 μg/mL)
same,Meropenem MIC alone (M),"ECL1097 Enterobacter cloacae SHV-31(2be), TEM-OSBL(2b), CTX-M-15, ACT-31, NDM-1",Z (MIC of greater than 10 μg/mL)
same,Meropenem MIC alone (M),"ECL1098 Enterobacter cloacae TEM-OSBL(2b), DHA-1, ACT-16, NDM-1",Z (MIC of greater than 10 μg/mL)
same,Meropenem MIC alone (M),"KP1054 Klebsiella pneumoniae VIM-1, SHV-11",Y (MIC of 1 μg/mL to 10 μg/mL)
same,Meropenem MIC alone (M),"KP1059 Klebsiella pneumoniae VIM-1, SHV-11",Z (MIC of greater than 10 μg/mL)
same,Meropenem MIC alone (M),"KP1061 Klebsiella pneumoniae KPC-3, TEM-1, SHV-11",Z (MIC of greater than 10 μg/mL)
same,Meropenem MIC alone (M),"KP1064 Klebsiella pneumoniae KPC-2, TEM-1, SHV-11",Z (MIC of greater than 10 μg/mL)
same,Meropenem MIC alone (M),"KP1065 Klebsiella pneumoniae VIM-1, SHV-11",Y (MIC of 1 μg/mL to 10 μg/mL)
same,Meropenem MIC alone (M),"KP1070 Klebsiella pneumoniae KPC-2, SHV-11, TEM-1",Z (MIC of greater than 10 μg/mL)
same,Meropenem MIC alone (M),"KP1074 Klebsiella pneumoniae KPC-3, SHV-11, TEM",Z (MIC of greater than 10 μg/mL)
same,Meropenem MIC alone (M),"KP1081 Klebsiella pneumoniae NDM-1, TEM-1, SHV-11, CMY-6, CTX-M-15",Z (MIC of greater than 10 μg/mL)
same,Meropenem MIC alone (M),"KP1158 Klebsiella pneumoniae KPC-2, VIM-1",Z (MIC of greater than 10 μg/mL)
same,Meropenem MIC alone (M),"KP1159 Klebsiella pneumoniae SHV-1(2b), CTX-M-15, IMP-4",Z (MIC of greater than 10 μg/mL)
same,Meropenem MIC alone (M),"KP1160 Klebsiella pneumoniae SHV-28(2be), CTX-M-15, IMP-26",Z (MIC of greater than 10 μg/mL)
same,Meropenem MIC alone (M),KP1161 Klebsiella pneumoniae NDM-1,Z (MIC of greater than 10 μg/mL)
same,Meropenem MIC alone (M),"KP1162 Klebsiella pneumoniae SHV-1(2b), CTX-M-15, IMP-4",Z (MIC of greater than 10 μg/mL)
same,Meropenem MIC alone (M),"KP1163 Klebsiella pneumoniae SHV-11(2b), MOX-1, KPC-2, VIM-1",Z (MIC of greater than 10 μg/mL)
same,Meropenem MIC alone (M),"KP1164 Klebsiella pneumoniae SHV-12(2be), VIM-1",Z (MIC of greater than 10 μg/mL)
same,Meropenem MIC alone (M),"KP1165 Klebsiella pneumoniae SHV-11(2b), CTX-M-15, VIM-27",Z (MIC of greater than 10 μg/mL)
same,Meropenem MIC alone (M),"KP1166 Klebsiella pneumoniae SHV-5(2be), VIM-26",Z (MIC of greater than 10 μg/mL)
same,Meropenem MIC alone (M),"KP1168 Klebsiella pneumoniae SHV-11(2b), CTX-M-15, VIM-27",Z (MIC of greater than 10 μg/mL)
same,Meropenem MIC alone (M),"KP1169 Klebsiella pneumoniae SHV-11(2b), VIM-1",Z (MIC of greater than 10 μg/mL)
same,Meropenem MIC alone (M),"KP1170 Klebsiella pneumoniae SHV-11(2b), CTX-M-15, NDM-1",Z (MIC of greater than 10 μg/mL)
same,Meropenem MIC alone (M),"KP1172 Klebsiella pneumoniae SHV-31(2be), DHA-1, VIM-1",Z (MIC of greater than 10 μg/mL)
same,Meropenem MIC alone (M),"KP1173 Klebsiella pneumoniae TEM-33(2br), CTX-M-15, IMP-1",Y (MIC of 1 μg/mL to 10 μg/mL)
same,Meropenem MIC alone (M),"KP1174 Klebsiella pneumoniae CTX-M-14, IMP-1",Y (MIC of 1 μg/mL to 10 μg/mL)
same,Meropenem MIC alone (M),"KP1175 Klebsiella pneumoniae SHV-OSBL(2b), VIM-1",Z (MIC of greater than 10 μg/mL)
same,Meropenem MIC alone (M),"KP1176 Klebsiella pneumoniae SHV-12(2be), TEM-OSBL(2b), CMY-13, KPC-2, VIM-1",Z (MIC of greater than 10 μg/mL)
same,Meropenem MIC alone (M),"KP1177 Klebsiella pneumoniae SHV-OSBL(2b), TEM-OSBL(2b), CTX-M-15, NDM-1",Z (MIC of greater than 10 μg/mL)
same,Meropenem MIC alone (M),"KP1178 Klebsiella pneumoniae SHV-OSBL(2b), TEM-OSBL(2b), CTX-M-15, NDM-1",Z (MIC of greater than 10 μg/mL)
same,Meropenem MIC alone (M),"KP1179 Klebsiella pneumoniae SHV-12(2be), TEM-OSBL(2b), CTX-M-15, NDM-7",Z (MIC of greater than 10 μg/mL)
same,Meropenem MIC alone (M),"KP1180 Klebsiella pneumoniae SHV-OSBL(2b), TEM-OSBL(2b), CTX-M-15, DHA-1, IMP-26",Y (MIC of 1 μg/mL to 10 μg/mL)
same,Meropenem MIC alone (M),"KP1181 Klebsiella pneumoniae SHV-OSBL(2b), CTX-M-15, IMP-26",Z (MIC of greater than 10 μg/mL)
